The text below walks through data of paper PMC13379085 (PLOS Neglected Tropical Diseases, 2026).

pIC50: −log10 of the molar value. Some results are limits rather than exact numbers.

Experiment [1] addresses T1, lysozyme (Homo sapiens, UniProt P61626).
T1 sequence (P61626 19-148): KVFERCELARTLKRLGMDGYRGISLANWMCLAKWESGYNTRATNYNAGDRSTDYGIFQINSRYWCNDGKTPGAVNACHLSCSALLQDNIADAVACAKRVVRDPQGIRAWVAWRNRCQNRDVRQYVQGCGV
Briefly: Thermal proteome profiling (TPP) in Leishmania infected macrophage lysate. The settings on record: 100 µM 197 in L. mexicana infected THP-1 lysate. Also on record: endogenous in cells; host or cells: PMA-differentiated THP-1 macrophages infected with L. mexicana (lysate). The format is binding. On the procedure:
To generate cell lysate, ten million THP-1 cells were plated overnight in a 10 cm dish, then differentiated with 150 nM phorbol 12-myristate 13-acetate (PMA) for 72 hours. The resulting macrophages were infected with L. mexicana promastigotes at a multiplicity of infection of 10 and incubated for 18 hours. After infection, cells were washed three times with PBS to remove extracellular promastigotes. Cells were then collected by scraping and pelleted with centrifugation. The cell pellet was resuspended in phosphate buffered saline and subjected to five freeze-thaw cycles. Samples were centrifuged 14,000g x 10 minutes to remove cellular debris. Protein concentration of supernatant was determined by BCA assay and cell lysate was stored at -80 ° C until further use.
The cell lysate was divided into two portions. One portion was spiked with 197 in DMSO to generate the ‘with ligand’ sample; and the other portion was spiked with DMSO to generate the ‘without ligand’ sample. The final concentration of 197 in the ‘with ligand’ sample was 100 µM, and both the without and with ligand samples contained 1% DMSO. The with and without samples were each subjected five replicate one-pot TPP analyses like that previously described. […]

Experiment [2] deals with Intracellular L. mexicana amastigotes. Briefly: microbe, parasite or virus in culture. Format: cell-based, Leishmania mexicana. The note with it: bone marrow derived macrophages, Giemsa staining, 72-hour incubation. On the procedure:
Bone marrow derived macrophages (BMDMs) were isolated from BALB/c mice and cultured as previously described. […] Completely differentiated BMDMs are obtained after 7 days of culture with media change every 2 days. Harvested cells are seeded onto 10 mm glass cover slips at 5 x 10^5 cells/ well of a 24 well plate in DMEM media (without LCM) and allowed to adhere overnight. BMDM cells are then infected overnight with LV82 L. donovani or L. mexicana (NR-51210) at a multiplicity of infection of 10. After infection, cells were washed three times with fresh media to remove extracellular promastigotes and treated with compounds for a 72-hour incubation. BMDM cells were then washed with phosphate buffered saline, fixed with ice-cold methanol, and stained with Giemsa (5% v/v in water). The cover slips with stained cells are mounted onto glass slides and imaged on EVOS XL (100X, Thermo Fisher Scientific). Leishmania amastigotes per 100 macrophages were determined in a blinded manner.

In experiment [3] the target is T1, lysozyme. Briefly: Fluorometric lysozyme activity assay. Format: biochemical. Also on record: purchased Sigma L1667. The note with it: lysozyme 1mg/mL; 0, 1, and 50 µM 197. The protocol: Recombinant human lysozyme protein (1mg/mL, Sigma, Cat # L1667) was incubated with 0 µM, 1 µM or 50 µM 197. Lysozyme activity was measured via a fluorometric assay (Abcam, Cat # ab211113) according to manufacturer’s protocol.

As usually defined, the pIC50 is −log10 of the IC50, conventionally taken in molar units. Read a high pIC50 as a small IC50. On to `O=C(CNCc1cccc(F)c1)Nc1ccc(-n2cc(C(F)(F)F)nc2-c2ccc(-c3ccc(C(F)(F)F)cc3)cc2)cc1` [Compound 197], for which the “TPP z-score for lysozyme” value at lysozyme [1] was 4.32. Further, the pIC50 in experiment [2] (Leishmania mexicana, Macrophage, 72 h) is greater than 5.70; in experiment [2], 5.77. Moreover, at lysozyme [3], the lysozyme activity result was “dose-dependent increase”.
